Test results published in patent US6127519A, “Calcitonin derivatives” (Tsumura & Co., priority 1990, dated 2000).
Bridge positions count the residues as written; N and C are the ends. Peptide text beside a SMILES is read from it.

System: calcium concentration in the serum
Assay: Test 1: reduction of calcium level in serum after tail vein administration to rats
Type: in vivo, rats of the Wistar strain
Conditions: 1 ml/kg tail vein, female Wistar rats
Description: Six-weeks-old female rats of the Wistar strain (each group consisting of 4 rats) were used as the test animal, and the peptides of the present invention obtained in the examples given hereinafter were tested at concentrations adjusted with a 1% aqueous solution of sodium acetate (pH 4,0) to which 0.1% bovine serum albumin (BSA) was added. The solution was adjusted to a concentration of 166 μg/ml 830 ng/ml or 83 ng/ml and administered with the tail vein in an amount of 1 ml/kg. The back of the rat was fixed and blood was collected just before the administration, and at predetermined intervals after the administration, from the neck vein. The amount of blood collected each time was 0.3 ml. The sampled blood was subjected to centrifugal separation at 3500 rpm for 20 minutes to separate serum and the calcium content in the separated serum was measured by TBA-380 (supplied by Toshiba) using a Wako calcium-measuring kit (o-cpc method), and the ratio of reduction of the calcium concentration in the serum was determined.

[1] = concentration 83 ng/ml, 0 hour (just before administration)
[2] = concentration 83 ng/ml, 2 hours
[3] = concentration 83 ng/ml, 4 hours
[4] = concentration 83 ng/ml, 6 hours
[5] = concentration 830 ng/ml, 0 hour (just before administration)
[6] = concentration 830 ng/ml, 1 hour
[7] = concentration 830 ng/ml, 2 hours
[8] = concentration 830 ng/ml, 4 hours
[9] = concentration 830 ng/ml, 6 hours

Row | Compound | Serum calcium level as percent of pre-dose baseline [1] [%] | Serum calcium level as percent of pre-dose baseline (concentration 83 ng/ml, 1 hour) [%] | Serum calcium level as percent of pre-dose baseline [2] [%] | Serum calcium level as percent of pre-dose baseline [3] [%] | Serum calcium level as percent of pre-dose baseline [4] [%] | Serum calcium level as percent of pre-dose baseline [5] [%] | Serum calcium level as percent of pre-dose baseline [6] [%] | Serum calcium level as percent of pre-dose baseline [7] [%] | Serum calcium level as percent of pre-dose baseline [8] [%] | Serum calcium level as percent of pre-dose baseline [9] [%]
1 | CC[C@H](C)[C@H](NC(=O)[C@H](C)NC(=O)[C@@H](NC(=O)[C@H](CCC(N)=O)NC(=O)[C@@H]1CCCN1C(=O)[C@H](Cc1ccc(O)cc1)NC(=O)[C@@H](NC(=O)[C@H](CCC(N)=O)NC(=O)[C@H](CC(C)C)NC(=O)[C@H](CCCCN)NC(=O)[C@H](Cc1c[nH]cn1)NC(=O)[C@H](CC(C)C)NC(=O)[C@H](CCC(=O)O)NC(=O)[C@H](CCC(N)=O)NC(=O)[C@H](CO)NC(=O)[C@H](CC(C)C)NC(=O)[C@H](CCCCN)NC(=O)CNC(=O)[C@H](CC(C)C)NC(=O)[C@H](CC(C)C)NC(=O)[C@@H]1CSSC[C@H](N)C(=O)NCC(=O)N[C@@H](CC(N)=O)C(=O)N[C@@H](CC(C)C)C(=O)N[C@@H](CO)C(=O)N[C@@H]([C@@H](C)O)C(=O)N1)[C@@H](C)O)[C@@H](C)O)C(=O)NCC(=O)N[C@H](C(=O)NCC(=O)N[C@@H](C)C(=O)N1CCC[C@H]1C(N)=O)C(C)C [Peptide No. 13] (H-CGNLSTCLLGKLSQELHKLQTYPQTAIGVGAP-NH2; disulfide 1-7) | 100.0 | 68.9 | 70.5 | 84.4 | 86.8 | 100.0 | 71.3 | 62.7 | 58.3 | 61.8
2 | CC[C@H](C)[C@H](NC(=O)[C@H](C)NC(=O)[C@@H](NC(=O)[C@H](CCC(N)=O)NC(=O)[C@@H]1CCCN1C(=O)[C@H](Cc1ccc(O)cc1)NC(=O)[C@@H](NC(=O)[C@H](CCC(N)=O)NC(=O)[C@H](CC(C)C)NC(=O)[C@H](CCCCN)NC(=O)[C@H](Cc1c[nH]cn1)NC(=O)[C@H](CC(C)C)NC(=O)[C@H](CCC(=O)O)NC(=O)[C@H](CCC(N)=O)NC(=O)[C@H](CO)NC(=O)[C@H](CC(C)C)NC(=O)[C@H](CCCCN)NC(=O)CNC(=O)[C@H](CC(C)C)NC(=O)[C@H](CCSC)NC(=O)[C@@H]1CCCCNC(=O)C[C@H](N)C(=O)N[C@@H](CC(N)=O)C(=O)N[C@@H](CC(C)C)C(=O)N[C@@H](CO)C(=O)N[C@@H]([C@@H](C)O)C(=O)N1)[C@@H](C)O)[C@@H](C)O)C(=O)NCC(=O)N[C@H](C(=O)NCC(=O)N[C@@H](C)C(=O)N1CCC[C@H]1C(N)=O)C(C)C [Peptide No. 23] (H-DNLSTKMLGKLSQELHKLQTYPQTAIGVGAP-NH2; lactam 1-6) | 100.0 | 73.6 | 72.2 | 83.3 | 82.4 | 100.0 | 68.5 | 61.6 | 56.9 | 71.1
